# Like-named read-outs stand apart in the source and are kept apart here.
# Tests used:
# ovary-removed rats [1] = assay: In vivo test: blood cholesterol level; set-up: species or system rats (Sprague-Dawley); settings: for Total blood cholesterol Conc.: oophorectomy rats, oral once a day 8 weeks; for Total blood cholesterol Relativ. Conc.: relative to OVX control = 1.00
# Procedure: (§1) In order to investigate the effects of the inventive mutual salts on BMD, bone stiffness, serum cholesterol level and calcium density, in vivo tests were carried out as follows.
# (§2) Also, 1.5% carboxymethylcellulose alone was administrated in a same manner to each of ovary-removed rats (group OVX) and normal rats (control, group Sham). After 8 weeks, a femur sample was obtained from each test groups to measure BMD, maximum load, stiffness, trabecular volume of epiphysis, bone volume of metaphysis, blood cholesterol level and blood calcium density.
# ovary-removed rats [2] = settings: for Bone volume Vol.: (bone volume)/(metaphysis volume) × 100; for Trabecular volume Vol.: (trabecular volume)/(epiphysis volume) × 100; for BMD / Stiffness Max. load / Stiffness Stiff.: femur; for BMD / Stiffness Max. load / Stiffness Stiff. / Blood calcium density Conc.: oophorectomy rats, oral once a day 8 weeks; for Stiffness Relativ. Stiff.: relative Max. Load value, OVX control = 1.00; for Trabecular volume Relativ Vol / BMD Relativ. Density / Blood calcium density Relativ. Conc. / Bone volume Relativ Vol: relative to OVX control = 1.00
# Procedure: as §1, §2
# [3] = in words, as compared with the individual raloxifene hydrochloride or alendronate
compound,measurement,setting,value
"NCCCC(O)(P(=O)(O)O)P(=O)(O)O [Alendronate, sodium alendronate trihydrate]",Total blood cholesterol Conc.,ovary-removed rats [1]; 1.0 mg/kg (T1),98.387 ± 17.23 mg/dL
same,Total blood cholesterol Relativ. Conc.,ovary-removed rats [1]; 1.0 mg/kg (T1),0.93
same,Bone volume Vol.,ovary-removed rats [2]; 1.0 mg/kg (T1),56.46 ± 17.93%
same,Trabecular volume Vol.,ovary-removed rats [2]; 1.0 mg/kg (T1),20.27 ± 7.76%
same,BMD,ovary-removed rats [2]; 1.0 mg/kg (T1),92.57 ± 5.64 mg/cm^2
same,Stiffness Max. load,ovary-removed rats [2]; 1.0 mg/kg (T1),19.22 ± 2.14 N
same,Stiffness Stiff.,ovary-removed rats [2]; 1.0 mg/kg (T1),19.02 ± 3.86 N/mm
same,Stiffness Relativ. Stiff.,ovary-removed rats [2]; 1.0 mg/kg (T1),0.88
same,Trabecular volume Relativ Vol,ovary-removed rats [2]; 1.0 mg/kg (T1),1.75
"Cl.O=C(c1ccc(OCCN2CCCCC2)cc1)c1c(-c2ccc(O)cc2)sc2cc(O)ccc12 [Raloxifene hydrochloride, 6-hydroxy-2-(4-hydroxyphenyl)benzo[b]thien-3-yl 4-[2-(1-piperidinyl)ethoxy]phenyl methanone hydrochloride]",Total blood cholesterol Conc.,ovary-removed rats [1]; 1.9 mg/kg (T2),41.40 ± 9.71 mg/dL
same,Total blood cholesterol Conc.,ovary-removed rats [1]; 5.6 mg/kg (T3),40.83 ± 14.2 mg/dL
same,Total blood cholesterol Relativ. Conc.,ovary-removed rats [1]; 1.9 mg/kg (T2),0.39
same,Total blood cholesterol Relativ. Conc.,ovary-removed rats [1]; 5.6 mg/kg (T3),0.39
same,Bone volume Vol.,ovary-removed rats [2]; 1.9 mg/kg (T2),75.96 ± 17.61%
same,Bone volume Vol.,ovary-removed rats [2]; 5.6 mg/kg (T3),65.56 ± 15.33%
same,Trabecular volume Vol.,ovary-removed rats [2]; 1.9 mg/kg (T2),11.25 ± 2.57%
same,Trabecular volume Vol.,ovary-removed rats [2]; 5.6 mg/kg (T3),15.15 ± 4.08%
same,BMD,ovary-removed rats [2]; 1.9 mg/kg (T2),91.09 ± 6.98 mg/cm^2
same,Stiffness Max. load,ovary-removed rats [2]; 1.9 mg/kg (T2),30.00 ± 3.24 N
same,Stiffness Stiff.,ovary-removed rats [2]; 1.9 mg/kg (T2),33.07 ± 9.55 N/mm
same,BMD,ovary-removed rats [2]; 5.6 mg/kg (T3),93.76 ± 6.22 mg/cm^2
same,Stiffness Max. load,ovary-removed rats [2]; 5.6 mg/kg (T3),32.09 ± 4.37 N
same,Stiffness Stiff.,ovary-removed rats [2]; 5.6 mg/kg (T3),38.64 ± 15.2 N/mm
same,Blood calcium density Conc.,ovary-removed rats [2]; 1.9 mg/kg (T2),9.20 ± 0.33 mg/dL
same,Blood calcium density Conc.,ovary-removed rats [2]; 5.6 mg/kg (T3),9.42 ± 0.23 mg/dL
same,Stiffness Relativ. Stiff.,ovary-removed rats [2]; 1.9 mg/kg (T2),1.37
same,Stiffness Relativ. Stiff.,ovary-removed rats [2]; 5.6 mg/kg (T3),1.46
same,BMD Relativ. Density,ovary-removed rats [2]; 1.9 mg/kg (T2),1.17
same,Blood calcium density Relativ. Conc.,ovary-removed rats [2]; 1.9 mg/kg (T2),0.98
same,Bone volume Relativ Vol,ovary-removed rats [2]; 1.9 mg/kg (T2),2.64
same,Trabecular volume Relativ Vol,ovary-removed rats [2]; 1.9 mg/kg (T2),0.97
same,BMD Relativ. Density,ovary-removed rats [2]; 5.6 mg/kg (T3),1.20
same,Blood calcium density Relativ. Conc.,ovary-removed rats [2]; 5.6 mg/kg (T3),1.00
same,Bone volume Relativ Vol,ovary-removed rats [2]; 5.6 mg/kg (T3),2.28
same,Trabecular volume Relativ Vol,ovary-removed rats [2]; 5.6 mg/kg (T3),1.31
raloxifene alendronate pentahydrate,blood cholesterol level,ovary-removed rats [1]; [3],effectively controls
same,Total blood cholesterol Conc.,ovary-removed rats [1]; 2.9 mg/kg (T4),66.86 ± 9.68 mg/dL
same,Total blood cholesterol Relativ. Conc.,ovary-removed rats [1]; 2.9 mg/kg (T4),0.64
same,Bone volume Vol.,ovary-removed rats [2]; 2.9 mg/kg (T4),68.00 ± 9.00%
same,Trabecular volume Vol.,ovary-removed rats [2]; 2.9 mg/kg (T4),17.81 ± 2.49%
same,BMD,ovary-removed rats [2]; 2.9 mg/kg (T4),99.28 ± 6.25 mg/cm^2
same,Stiffness Max. load,ovary-removed rats [2]; 2.9 mg/kg (T4),26.50 ± 0.73 N
same,Stiffness Stiff.,ovary-removed rats [2]; 2.9 mg/kg (T4),35.34 ± 11.3 N/mm
same,"BMD, bone stiffness, trabecular volume and bone volume",ovary-removed rats [2]; [3],markedly enhances
same,blood calcium level,ovary-removed rats [2]; [3],effectively controls
same,Blood calcium density Conc.,ovary-removed rats [2]; 2.9 mg/kg (T4),6.69 ± 0.94 mg/dL
same,Stiffness Relativ. Stiff.,ovary-removed rats [2]; 2.9 mg/kg (T4),1.21
same,BMD Relativ. Density,ovary-removed rats [2]; 2.9 mg/kg (T4),1.27
same,Blood calcium density Relativ. Conc.,ovary-removed rats [2]; 2.9 mg/kg (T4),0.71
same,Bone volume Relativ Vol,ovary-removed rats [2]; 2.9 mg/kg (T4),2.37
same,Trabecular volume Relativ Vol,ovary-removed rats [2]; 2.9 mg/kg (T4),1.54

# From patent US20070082871A1, “Antiresorptive mutual salt of raloxifene and bisphosphonic acid” (HANMI PHARM. CO., LTD., priority 2003, published 2007)
